Experimental data published in publication PMC12856912, “Structure-Guided Semisynthesis of Blasticidin S–Amicetin Chimeras as Selective Ribosome Inhibitors” (Journal of the American Chemical Society, 2026).
In brackets after ≈: the same amount, converted by molar mass.

Tests used:
[1] = test system: Vancomycin resistant E. faecalis NR-31972 (VRE); experiment: Antibacterial MIC assay, serial dilution; type: cell-based, Enterococcus faecalis; details: for Selectivity index (CC50/MIC) VRE NR-31972: CC50 Vero cells / MIC; for MIC: Enterococcus faecalis, VRE, 24 h, read-out: MIC Vancomycin resistant E. faecalis NR-31972 (VRE)
Method in brief: (§1)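 Overnight cultures were subcultured in CAMHB to OD600 ~0.5, then diluted to OD600 0.004 and added to serially diluted compound (final 128–1 μg/mL). After incubation at 37 °C for 16–18 h, or 24 h for VRE, growth was read at OD600 and MIC taken as >90% inhibition.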

[2] = test system: Escherichia coli BAA-2452; experiment: Antibacterial MIC assay, serial dilution; type: cell-based; details: BAA2452, read-out: MIC Escherichia coli BAA-2452
[3] = test system: Pseudomonas aeruginosa; experiment: Antibacterial MIC assay, serial dilution; type: cell-based; details: for Selectivity index (CC50/MIC) P. aeruginosa: CC50 Vero cells / MIC; for MIC: Pseudomonas aeruginosa, range from biological replicates, read-out: MIC P. aeruginosa
Method in brief: as §1

[4] = test system: Acinetobacter baumannii ATCC 17978; experiment: Antibacterial MIC assay, serial dilution; type: cell-based; details: ATCC17978, range from biological replicates
Method in brief: as §1

[5] = test system: Vancomycin resistant Enterococcus faecium NR-31909 (VRE); experiment: Antibacterial MIC assay, serial dilution; type: cell-based; details: for MIC: Enterococcus faecium, VRE, 24 h, read-out: MIC Vancomycin resistant Enterococcus faecium NR-31909 (VRE)
Method in brief: as §1

[6] = test system: Enterococcus faecalis ATCC 29212; experiment: Antibacterial MIC assay, serial dilution; type: cell-based; details: for Selectivity index (CC50/MIC) E. faecalis 29212: CC50 Vero cells / MIC; for MIC: Enterococcus faecalis, ATCC 29112 / ATCC 29212, 24 h, read-out: MIC E. faecalis ATCC 29112
[7] = test system: Klebsiella pneumoniae ATCC 29665; experiment: Antibacterial MIC assay, serial dilution; type: cell-based; details: for MIC: Klebsiella pneumoniae, ATCC29665, range from biological replicates, read-out: MIC K. pneumoniae ATCC-29665
Method in brief: as §1

[8] = test system: Methicillin resistant S. aureus (MRSA) USA300; experiment: Antibacterial MIC assay, serial dilution; type: cell-based, Staphylococcus aureus; details: for Selectivity index (CC50/MIC) MRSA USA300: CC50 Vero cells / MIC; for MIC: Staphylococcus aureus, read-out: MIC Methicillin resistant S. aureus (MRSA) USA300
[9] = test system: S. aureus ATCC 6538P; experiment: Antibacterial MIC assay, serial dilution; type: cell-based, Staphylococcus aureus; details: for Selectivity index (CC50/MIC) S. aureus 6538P: CC50 Vero cells / MIC; for MIC: Staphylococcus aureus, ATCC 6538P / ATCC 6539P, read-out: MIC S. aureus ATCC 6539P
Method in brief: as §1

[10] = test system: S. aureus ΔNorA; experiment: Antibacterial MIC assay, serial dilution; type: cell-based, Staphylococcus aureus; details: for Selectivity index (CC50/MIC) S. aureus ΔNorA: CC50 Vero cells / MIC; for MIC: Staphylococcus aureus, read-out: MIC S. aureus ∆NorA
Method in brief: as §1

[11] = test system: MRSA ATCC 43300; experiment: Antibacterial MIC assay, serial dilution; type: cell-based, Staphylococcus aureus; details: for Selectivity index (CC50/MIC) MRSA 43300: CC50 Vero cells / MIC; for MIC: Staphylococcus aureus, read-out: MIC MRSA ATCC 43300
Method in brief: as §1

[12] = test system: Methicillin resistant Staphylococcus epidermidis (MRSE) ATCC 35984 NRS101; experiment: Antibacterial MIC assay, serial dilution; type: cell-based; details: for Selectivity index (CC50/MIC) MRSE 35984: CC50 Vero cells / MIC; for MIC: Staphylococcus epidermidis, read-out: MIC Methicillin resistant Staphylococcus epidermidis (MRSE) ATCC 35984 NRS101
[13] = Cytotoxicity assay (MTS/PMS); type: cell-based; details: monkey, Vero cells (monkey kidney epithelial cells); 24 h treatment, MTS/PMS, average of three biological replicates; read-out: CC50 against Vero cells
Method in brief: (§2)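 CC50 (µg/mL) was taken as the compound level that lowered vehicle-normalized viability to 50%, from MTS/PMS absorbance at 490 nm after 4 h with reagent. Monkey kidney Vero cells in DMEM/10% FBS received serial dilutions for 24 h at 37 °C, in three biological replicates.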

[14] = test system: Vero cells; experiment: Cytotoxicity assay (MTS/PMS); type: cell-based; details: Vero cells, chimera vs parent of its series
Method in brief: as §2

[15] = test system: bacteria; experiment: Antibacterial assays, summary statements over the panel; type: cell-based; details: against most S. aureus strains
Description: Media and solutions were autoclaved or sterile filtered prior to use and mani pulations were carri ed out in a laminar flow hood. Antibacterial t esting was performed in polypropylene 96-well flat bottom plates. The minimal inhibitory concentration of blasticidin S (1) hydrochloride, methyl ester (3) trihydrochloride, P10 (2) tri-T FA , phenet hyl amide (4) tri -T FA , an d blastimidines M 19– 22, A, 29–32, P 37–40, and C 43–46 (salt forms as described in the te xt) were assessed against Staphylococcus aureus ΔNorA, S. aureus ATCC 6538P, methicillin-resistant S. aureus (MRSA) ATCC 43300, Enterococcus faecalis ATCC 29212, vancomycin- resistant Enterococcus, Klebsiella pneumoniae ATCC 29665, Pseudomonas aeruginosa,and Acinetobacter baumannii ATCC 17978 using serial dilutions. Doxycycline (Gold Bio) as a positive control and the vehicle as a negative control. Stock solutions of each compound were prepared at 2.56 mg/mL in 50% DMSO/water and serially diluted in 50% DMSO/water to create master plates. […]
Growth controls (wells with inoculated media but no vehicle or test compounds) were included to assess any potential toxicity from the vehicle. […] Inh ibition was determined by measuring the optical density at 600 nm (OD60 0) with a Cytation 3 pl ate read er (BioTek). […]

[16] = test system: MRSA USA-300; type: cell-based, Staphylococcus aureus; details: for bacteriostatic or bactericidal effect in time-kill assay: 5× MIC and 10× MIC
Description: MRSA USA-300 was grown overnight in cation- adjusted Muell er-Hinton broth (CAMHB), then subcultured into fresh CAMHB and incubated aerobi cally at 37°C until reaching the logarithmic phase, corresponding to an optical density (OD₆₀₀) of 0.2. The bacterial cultures were further diluted to adjust to a final concentration of 5 × 10⁵ CFU/mL in CAMHB. P3, P5, vancomycin and linezolid, were added at concentrations of 5× and 10× MIC. A DMSO-treated […]
culture serv ed as an untreated control. The cultures were aerobically maintai ned at 37°C in shaking incubator. At specifi c sampling times, aliquots were collected, resuspended in phosphate-buffered saline (PBS) and distributed to three replicates on tryptic soy agar (TSA). After a 24-hour incubation period at 37°C, the number of colony- forming units (CFUs) was evaluated.
F i g u re S 1. Time kill results against MRSA USA 300 at 5X and 10X MIC. Compound P3 ( 38) is shown as red squares, compound P5( 40) is shown as green tri angles. Vancomycin (inverted purple triangle) is used as a b act ericidal control and linezolid (orange diamond) as a bacteriostatic control with DMSO (blue circles ) as a neg ative control. […]

SMILES | Selectivity index (CC50/MIC) VRE NR-31972 [1] | MIC [1] | MIC [2] | Selectivity index (CC50/MIC) P. aeruginosa [3] | MIC [3] | MIC [4] | MIC [5] | Selectivity index (CC50/MIC) E. faecalis 29212 [6] | MIC [6] | MIC [7] | Selectivity index (CC50/MIC) MRSA USA300 [8] | MIC [8] | Selectivity index (CC50/MIC) S. aureus 6538P [9] | MIC [9] | Selectivity index (CC50/MIC) S. aureus ΔNorA [10] | MIC [10] | Selectivity index (CC50/MIC) MRSA 43300 [11] | MIC [11] | Selectivity index (CC50/MIC) MRSE 35984 [12] | MIC [12] | also measured
CC(=O)Nc1ccc(C(=O)Nc2ccn([C@H]3C=C[C@H](NC(=O)C[C@@H](N)CCN(C)C(=N)N)[C@@H](C(=O)O)O3)c(=O)n2)cc1 [Blastimidine C4] | <1.6 | > 128 µg/mL | > 128 µg/mL | <1.6 | > 128 µg/mL | > 128 µg/mL | > 128 µg/mL | <1.6 | > 128 µg/mL | 128 µg/mL (≈ 219 µM) | <1.6 | > 128 µg/mL | <1.6 | > 128 µg/mL | <1.6 | > 128 µg/mL | <1.6 | > 128 µg/mL | <1.6 | > 128 µg/mL | CC50 at 24 h [13]: 203 µg/mL (≈ 348 µM); fold lower cytotoxicity relative to parent molecule [14]: > 10 fold
CNc1ccc(C(=O)Nc2ccn([C@H]3C=C[C@H](NC(=O)C[C@@H](N)CCN(C)C(=N)N)[C@@H](C(=O)OC)O3)c(=O)n2)cc1 [Blastimidine M3] | 13 | 16 µg/mL (≈ 28.1 µM) | 32 µg/mL (≈ 56.2 µM) | <1.6 | > 128 µg/mL | > 128 µg/mL | 64 µg/mL (≈ 112 µM) | 13 | 16 µg/mL (≈ 28.1 µM) | 32 µg/mL (≈ 56.2 µM) | 26 | 8 µg/mL (≈ 14 µM) | 26 | 8 µg/mL (≈ 14 µM) | 26 | 8 µg/mL (≈ 14 µM) | 13 | 16 µg/mL (≈ 28.1 µM) | 26 | 8 µg/mL (≈ 14 µM) | Selectivity index (SI) [15]: > 25; Selectivity index (CC50/MIC) VRE NR-31909 ([5]; CC50 Vero cells / MIC): 3.2; Selectivity index (CC50/MIC) K. pneumoniae ([7]; CC50 Vero cells / MIC): 6.4; CC50 at 24 h [13]: 205 µg/mL (≈ 360 µM)
CC(=O)NC[C@H]1CN(c2ccc(N3CCOCC3)c(F)c2)C(=O)O1 [linezolid, reference compound] |  |  |  |  |  |  |  |  |  |  |  |  |  |  |  |  |  |  |  |  | bacteriostatic or bactericidal effect in time-kill assay [16]: bacteriostatic activity
CN[C@H](CC(C)C)C(=O)N[C@H]1C(=O)N[C@@H](CC(N)=O)C(=O)N[C@H]2C(=O)N[C@H]3C(=O)N[C@H](C(=O)N[C@H](C(=O)O)c4cc(O)cc(O)c4-c4cc3ccc4O)[C@H](O)c3ccc(c(Cl)c3)Oc3cc2cc(c3O[C@@H]2O[C@H](CO)[C@@H](O)[C@H](O)[C@H]2O[C@H]2C[C@](C)(N)[C@H](O)[C@H](C)O2)Oc2ccc(cc2Cl)[C@H]1O [vancomycin, reference compound] |  |  |  |  |  |  |  |  |  |  |  |  |  |  |  |  |  |  |  |  | bacteriostatic or bactericidal effect in time-kill assay [16]: bactericidal activity; time to bactericidal activity ([16]; time-kill assay): ≤ 8 h
